Results on two molecules are retold here after patent publication EP2681209B1, “COMPOUNDS AND METHODS FOR THE TREATMENT OF PAIN AND OTHER DISORDERS” (Aquilus Pharmaceuticals, Inc, priority 2011, dated 2012).

The subject of data set [1] is FVB male mice. Briefly: Spinal nerve ligation (SNL) mouse model of neuropathic pain, intraperitoneal administration, von Frey tactile allodynia test. The note with it: for 50% paw withdrawal threshold, Mean, Day 1 / 50% paw withdrawal threshold, Mean, Day 2 / 50% paw withdrawal threshold, Mean, Day 5 / 50% paw withdrawal threshold, Mean, Day 6 / 50% paw withdrawal threshold, Mean, Day 7: IP 100 µl/mouse (approx. 3.3mg/Kg) daily injections day 1-5; for 50% paw withdrawal threshold, Mean, Day 0 Postoperative Baseline: group baseline after SNL injury, before first IP injection, von Frey. The format is in vivo. From the text:
To measure the neuropathic pain inhibiting affects of the MMP inhibitors of the present invention, the spinal nerve ligation (SNL) mouse model was run on a select number of compounds. This model which began with the work of Bennet and coworkers (Bennet, G.J. et al. Pain, 33, (1988), 87-107) and was optimized by Kim and Chung (Kim, S.H.; Chung, J.M. Pain, 50, (1992), 355-363) entails first, under magnification, the removal of one-third of the transverse process and then identifying and then dissecting free the L5 spinal nerve from the adjacent L4 spinal nerve in the mouse. The L5 spinal nerve is then tightly ligated using 6.0 silk suture. The nerve injury leads to hyperalgesia which manifests itself by enhanced responses to mechanical, heat and/or cooling stimuli. In this case, mechanical hyperalgesia is tested via Von Frey monofilaments in which filaments of varying thicknesses and bending force are individually applied to the plantar surface of the foot of the mouse. The threshold force necessary for paw withdrawal decreases dramatically after the nerve surgery. Potent pain inhibitors will reverse this affect resulting in greater force needing to be applied to cause the rodent paw to withdrawal.
Tactile Allodynia Test. Mechanical allodynia was measured using the calibrated von Frey filaments (Semmes-Weinstein monofilaments; Stoelting, Wood Dale, IL, U.S.A.). The plantar surface of the left injured paw of each animal was tested as described by Chaplan et al. (Journal of Neuroscience Methods, 53, (1994), 55-63). The Fifty percent paw withdrawal threshold response was determined by sequentially increasing or decreasing the stimulus strength according to the "up-down method" of Dixon (Annual Review Pharmacology Toxicology, 20, (1980), 441-462). For mice, […] von Frey filaments were used, with approximately equal logarithmic incremental bending forces (von Frey number: 1.65, 2.36, 2.44, 2.83, 3.22, 3.61, 3.84, 4.08, and 4.17; equivalent to 0.005, 0.02, 0.03, 0.07, 0.17, 0.41, 0.69, 1.20, and 1.48g force, respectively).
Prior to testing, each animal was placed in a suspended clear plastic chamber with a wire mesh bottom and acclimated for 15 minutes. Testing was initiated with the 0.07 g (handle marking of 2.83) applied perpendicularly to the plantar surface of the affected hind paw; each filament was applied with enough pressure to cause a buckle effect. The absence of a paw lifting/withdrawal response after 6 s prompted the use of the next higher weight filament. Paw withdrawal, indicating a positive response, prompted the use of a weaker filament. After the initial positive response (i.e., paw withdrawal), the testing continued for four additional measurements, and was used to calculate the response threshold. Four consecutive positive responses received a score of 0.001 g, and five consecutive negative responses (i.e., no paw withdrawal) received a score of 1.5 g.
Analyses for Tactile Allodynia Testing. The 50% paw withdrawal threshold was calculated (PWT; Luo and Calcutt, J. Pharmacology Experimental Therapeutics, 303(3), (2002), 1199-1205; Chaplan et al. Journal of Neuroscience Methods, 53, (1994), 55-63) using the formula: 10(Xf + κδ)/10,000 [formula] where Xf is the final von Frey filament used (log units), κ is a value that analyzes the response pattern (taken from the table published by Chaplan et al., 1994), and δ is the mean difference between stimuli (log units).
Except for the mode of administration, number of mice/group and the number of injections and amount per injection of compound given, the rest of the study was done in the same manner (in regards to the surgeries and tactile allodynia testing and analysis) as Experiment 110. 3.2 mg of each of the MMP inhibitors #5 and #10 were dissolved in 320 microliters of DMSO. To the solution was then added 32 microliters of Tween 80, followed by 2850 microliters of phosphate buffered saline (PBS). This gave a final concentration of 10% DMSO, 1% Tween and 1mg/ml compound. […]

The nature of data set [2]: In-vitro microsomal stability in mouse microsomes. The format is in vitro ADME. The note with it: 1 µM compound, mouse microsomes 0.3 mg/mL, at T = 60 minutes; for %Mean Remaining Parent without NADPH (%): control omitting NADPH. The method, then:
Human and mouse microsomal stability was determined for select compounds following the method of Houston (Houston, JB; Biochem. Pharmacol. 47, (1994),1469).
1 µM concentration of compound and seperate human and mouse microsomes (0.3 mg/mL, BD bioscience) were used in the in-vitro assay. To ensure proper energy supply for microsomal degradation of compound, an energy regenerating system comprised of 100 mM potassium phosphate, 2mM NADPH, 3mM MgCl2, pH = 7.4. and the microsomal protein is added to each sample and the resulting suspension is then incubated in duplicate for 60 min at 37° C. in a rotary shaker. A control is run for each test agent in duplicate omitting NADPH to detect NADPH-free degradation. At T=0 and T= 60 min., an aliquot is removed from each experimental and control reaction and then mixed with an equal volume of ice-cold Stop Solution (consisting of 0.3% acetic acid in acetonitrile containing haloperidol and diclofenac as internal standards). Stopped reactions are then incubated for at least ten minutes at -20 °C, and an additional volume of water is then be added. The samples are then centrifuged to remove precipitated protein, and the supernatants are then analyzed by LC-MS/MS to determine the percentage of compound remaining. The LC-MS/MS system used was an Agilent 6410 mass spectrometer coupled with an Agilent 1200 HPLC and a CTC PAL chilled autosampler, all controlled by MassHunter software (Agilent), or an ABI2000 mass spectrometer coupled with an Agilent 1100 HPLC and a CTC PAL chilled autosampler, all controlled by Analyst software (ABI). After separation on a C18 reverse phase HPLC column (Agilent, Waters, or equivalent) using an acetonitrile-water gradient system, peaks were analyzed by mass spectrometry (MS) using ESI ionization in MRM mode.

Each structure is given as a SMILES string.

For the molecule `Cc1ccc(C#Cc2ccc(S(=O)(=O)N[C@H](Cc3c[nH]c4ccccc34)C(=O)O)s2)cc1` [Compound 5, (R)-3-(1H-Indol-3-yl)-2-(5-p-tolylethynyl-thiophene-2-sulfonylamino)-propionic acid], in data set [1], the “50% paw withdrawal threshold, Mean, Day 1” value came out at 0.078 g; the “50% paw withdrawal threshold, Mean, Day 2” value is 0.117 g; the “50% paw withdrawal threshold, Mean, Day 5” value is 0.238 g; the “50% paw withdrawal threshold, Mean, Day 6” value is reported as 0.099 g. In addition, in data set [1], the “50% paw withdrawal threshold, Mean, Day 7” value is reported as 0.128 g and the “50% paw withdrawal threshold, Mean, Day 0 Postoperative Baseline” value is 0.046 g. In data set [2], the “%Mean Remaining Parent with NADPH (%)” value is 83% and the “%Mean Remaining Parent without NADPH (%)” value was 88%.
As to `[2H]C([2H])([2H])c1ccc(C#Cc2ccc(S(=O)(=O)N[C@H](Cc3c[nH]c4ccccc34)C(=O)O)s2)cc1` [Compound 10, (R)-3-(1H-Indol-3-yl)-2-[5-(4-trideuteromethyl-phenylethynyl)-thiophene-2-sulfonylamino]-propionic acid-(D3, 98%)], in data set [1], the “50% paw withdrawal threshold, Mean, Day 1” value amounted to 0.170 g; the “50% paw withdrawal threshold, Mean, Day 2” value is on record as 0.350 g; the “50% paw withdrawal threshold, Mean, Day 5” value is 1.470 g; the “50% paw withdrawal threshold, Mean, Day 6” value amounted to 0.867 g. Also, in data set [1], the “50% paw withdrawal threshold, Mean, Day 7” value amounted to 0.250 g and the “50% paw withdrawal threshold, Mean, Day 0 Postoperative Baseline” value came out at 0.096 g. In addition, the “reversal of mechanical alodynia” value in data set [1] (i.p. administration, by day 5) is “complete reversal of mechanical alodynia by day 5”. For the same molecule, in data set [2], the “%Mean Remaining Parent with NADPH (%)” value is 85% and the “%Mean Remaining Parent without NADPH (%)” value was found to be 91%.
